Source: ChEMBL document CHEMBL2040848, “Synthesis and bioactivity evaluation of rhodanine derivatives as potential anti-bacterial agents” (2012)
Values after ≈ are worked out from the molar mass of the structure shown.

System: Staphylococcus aureus
Assay: Antibacterial activity against methicillin-resistant Staphylococcus aureus CCARM 3506 after 24 hrs by two-fold serial dilution method
Assay type: functional
Conditions: CCARM 3506, 24 h

Row | Structure (SMILES) | MIC [µg/mL]
1 | O=C(COc1ccc(/C=C2\SC(=S)N([C@@H](Cc3c[nH]c4ccccc34)C(=O)O)C2=O)cc1)c1ccc(Br)cc1 | 8 (≈ 12.9 µM)
2 | O=C(COc1ccc(/C=C2\SC(=S)N([C@@H](Cc3c[nH]c4ccccc34)C(=O)O)C2=O)cc1)c1ccccc1Cl | 8 (≈ 13.9 µM)
3 | O=C(O)CN1C(=O)C(=Cc2ccc(/C=C/C(=O)c3ccc(Cl)cc3Cl)cc2)SC1=S | 2 (≈ 4.18 µM)
4 | Cc1ccc(C(=O)COc2ccc(/C=C3\SC(=S)N([C@@H](Cc4ccc(O)cc4)C(=O)O)C3=O)cc2)cc1 | 16 (≈ 30 µM)
5 | O=C(COc1ccc(/C=C2\SC(=S)N([C@@H](Cc3ccc(O)cc3)C(=O)O)C2=O)cc1)c1cccc(Br)c1 | 8 (≈ 13.4 µM)
6 | O=C(COc1ccc(/C=C2\SC(=S)N([C@@H](Cc3ccccc3)C(=O)O)C2=O)cc1)c1ccc(Cl)cc1Cl | 8 (≈ 14 µM)
7 | O=C(COc1ccc(/C=C2\SC(=S)N([C@@H](Cc3ccccc3)C(=O)O)C2=O)cc1)c1ccccc1F | 4 (≈ 7.67 µM)

System: Staphylococcus aureus
Assay: Antibacterial activity against Staphylococcus aureus KCTC 503 after 24 hrs by two-fold serial dilution method
Assay type: functional
Conditions: KCTC 503, 24 h

Row | Structure (SMILES) | MIC [µg/mL]
8 | O=C(COc1ccc(/C=C2\SC(=S)N([C@@H](Cc3c[nH]c4ccccc34)C(=O)O)C2=O)cc1)c1ccc(Br)cc1 | 4 (≈ 6.44 µM)
9 | O=C(COc1ccc(/C=C2\SC(=S)N([C@@H](Cc3c[nH]c4ccccc34)C(=O)O)C2=O)cc1)c1ccccc1Cl | 4 (≈ 6.93 µM)
10 | O=C(O)CN1C(=O)C(=Cc2ccc(/C=C/C(=O)c3ccc(Cl)cc3Cl)cc2)SC1=S | 2 (≈ 4.18 µM)
11 | Cc1ccc(C(=O)COc2ccc(/C=C3\SC(=S)N([C@@H](Cc4ccc(O)cc4)C(=O)O)C3=O)cc2)cc1 | 8 (≈ 15 µM)
12 | O=C(COc1ccc(/C=C2\SC(=S)N([C@@H](Cc3ccc(O)cc3)C(=O)O)C2=O)cc1)c1cccc(Br)c1 | 8 (≈ 13.4 µM)
13 | O=C(COc1ccc(/C=C2\SC(=S)N([C@@H](Cc3ccccc3)C(=O)O)C2=O)cc1)c1ccc(Cl)cc1Cl | 8 (≈ 14 µM)
14 | O=C(COc1ccc(/C=C2\SC(=S)N([C@@H](Cc3ccccc3)C(=O)O)C2=O)cc1)c1ccccc1F | 8 (≈ 15.3 µM)

System: Staphylococcus aureus
Assay: Antibacterial activity against quinolone-resistant Staphylococcus aureus CCARM 3519 after 24 hrs by two-fold serial dilution method
Assay type: functional
Conditions: CCARM 3519, 24 h

Row | Structure (SMILES) | MIC [µg/mL]
15 | O=C(COc1ccc(/C=C2\SC(=S)N([C@@H](Cc3c[nH]c4ccccc34)C(=O)O)C2=O)cc1)c1ccc(Br)cc1 | 8 (≈ 12.9 µM)
16 | O=C(COc1ccc(/C=C2\SC(=S)N([C@@H](Cc3c[nH]c4ccccc34)C(=O)O)C2=O)cc1)c1ccccc1Cl | 8 (≈ 13.9 µM)
17 | O=C(O)CN1C(=O)C(=Cc2ccc(/C=C/C(=O)c3ccc(Cl)cc3Cl)cc2)SC1=S | 2 (≈ 4.18 µM)
18 | Cc1ccc(C(=O)COc2ccc(/C=C3\SC(=S)N([C@@H](Cc4ccc(O)cc4)C(=O)O)C3=O)cc2)cc1 | 16 (≈ 30 µM)
19 | O=C(COc1ccc(/C=C2\SC(=S)N([C@@H](Cc3ccc(O)cc3)C(=O)O)C2=O)cc1)c1cccc(Br)c1 | 8 (≈ 13.4 µM)
20 | O=C(COc1ccc(/C=C2\SC(=S)N([C@@H](Cc3ccccc3)C(=O)O)C2=O)cc1)c1ccc(Cl)cc1Cl | 8 (≈ 14 µM)
21 | O=C(COc1ccc(/C=C2\SC(=S)N([C@@H](Cc3ccccc3)C(=O)O)C2=O)cc1)c1ccccc1F | 4 (≈ 7.67 µM)

System: Staphylococcus aureus
Assay: Antibacterial activity against Staphylococcus aureus KCTC 4220 after 24 hrs by two-fold serial dilution method
Assay type: functional
Conditions: KCTC 4220, 24 h

Row | Structure (SMILES) | MIC [µg/mL]
22 | O=C(COc1ccc(/C=C2\SC(=S)N([C@@H](Cc3c[nH]c4ccccc34)C(=O)O)C2=O)cc1)c1ccc(Br)cc1 | 8 (≈ 12.9 µM)
23 | O=C(COc1ccc(/C=C2\SC(=S)N([C@@H](Cc3c[nH]c4ccccc34)C(=O)O)C2=O)cc1)c1ccccc1Cl | 8 (≈ 13.9 µM)
24 | O=C(O)CN1C(=O)C(=Cc2ccc(/C=C/C(=O)c3ccc(Cl)cc3Cl)cc2)SC1=S | 2 (≈ 4.18 µM)
25 | Cc1ccc(C(=O)COc2ccc(/C=C3\SC(=S)N([C@@H](Cc4ccc(O)cc4)C(=O)O)C3=O)cc2)cc1 | 32 (≈ 60 µM)
26 | O=C(COc1ccc(/C=C2\SC(=S)N([C@@H](Cc3ccc(O)cc3)C(=O)O)C2=O)cc1)c1cccc(Br)c1 | 8 (≈ 13.4 µM)
27 | O=C(COc1ccc(/C=C2\SC(=S)N([C@@H](Cc3ccccc3)C(=O)O)C2=O)cc1)c1ccc(Cl)cc1Cl | 8 (≈ 14 µM)
28 | O=C(COc1ccc(/C=C2\SC(=S)N([C@@H](Cc3ccccc3)C(=O)O)C2=O)cc1)c1ccccc1F | 8 (≈ 15.3 µM)

System: Staphylococcus aureus
Assay: Antibacterial activity against quinolone-resistant Staphylococcus aureus CCARM 3505 after 24 hrs by two-fold serial dilution method
Assay type: functional
Conditions: CCARM 3505, 24 h

Row | Structure (SMILES) | MIC [µg/mL]
29 | O=C(COc1ccc(/C=C2\SC(=S)N([C@@H](Cc3c[nH]c4ccccc34)C(=O)O)C2=O)cc1)c1ccc(Br)cc1 | 8 (≈ 12.9 µM)
30 | O=C(COc1ccc(/C=C2\SC(=S)N([C@@H](Cc3c[nH]c4ccccc34)C(=O)O)C2=O)cc1)c1ccccc1Cl | 8 (≈ 13.9 µM)
31 | O=C(O)CN1C(=O)C(=Cc2ccc(/C=C/C(=O)c3ccc(Cl)cc3Cl)cc2)SC1=S | 2 (≈ 4.18 µM)
32 | Cc1ccc(C(=O)COc2ccc(/C=C3\SC(=S)N([C@@H](Cc4ccc(O)cc4)C(=O)O)C3=O)cc2)cc1 | 16 (≈ 30 µM)
33 | O=C(COc1ccc(/C=C2\SC(=S)N([C@@H](Cc3ccc(O)cc3)C(=O)O)C2=O)cc1)c1cccc(Br)c1 | 8 (≈ 13.4 µM)
34 | O=C(COc1ccc(/C=C2\SC(=S)N([C@@H](Cc3ccccc3)C(=O)O)C2=O)cc1)c1ccc(Cl)cc1Cl | 8 (≈ 14 µM)
35 | O=C(COc1ccc(/C=C2\SC(=S)N([C@@H](Cc3ccccc3)C(=O)O)C2=O)cc1)c1ccccc1F | 4 (≈ 7.67 µM)

System: Staphylococcus aureus
Assay: Antibacterial activity against Staphylococcus aureus KCTC 209 after 24 hrs by two-fold serial dilution method
Assay type: functional
Conditions: KCTC 209, 24 h

Row | Structure (SMILES) | MIC [µg/mL]
36 | O=C(COc1ccc(/C=C2\SC(=S)N([C@@H](Cc3c[nH]c4ccccc34)C(=O)O)C2=O)cc1)c1ccc(Br)cc1 | 4 (≈ 6.44 µM)
37 | O=C(COc1ccc(/C=C2\SC(=S)N([C@@H](Cc3c[nH]c4ccccc34)C(=O)O)C2=O)cc1)c1ccccc1Cl | 4 (≈ 6.93 µM)
38 | O=C(O)CN1C(=O)C(=Cc2ccc(/C=C/C(=O)c3ccc(Cl)cc3Cl)cc2)SC1=S | 2 (≈ 4.18 µM)
39 | Cc1ccc(C(=O)COc2ccc(/C=C3\SC(=S)N([C@@H](Cc4ccc(O)cc4)C(=O)O)C3=O)cc2)cc1 | 4 (≈ 7.5 µM)
40 | O=C(COc1ccc(/C=C2\SC(=S)N([C@@H](Cc3ccc(O)cc3)C(=O)O)C2=O)cc1)c1cccc(Br)c1 | 8 (≈ 13.4 µM)
41 | O=C(COc1ccc(/C=C2\SC(=S)N([C@@H](Cc3ccccc3)C(=O)O)C2=O)cc1)c1ccc(Cl)cc1Cl | 8 (≈ 14 µM)
42 | O=C(COc1ccc(/C=C2\SC(=S)N([C@@H](Cc3ccccc3)C(=O)O)C2=O)cc1)c1ccccc1F | 4 (≈ 7.67 µM)

System: Escherichia coli
Assay: Antibacterial activity against Escherichia coli 1356 after 24 hrs by two-fold serial dilution method
Assay type: functional
Conditions: Escherichia coli, 1356, 24 h

Row | Structure (SMILES) | MIC [µg/mL]
43 | O=C(COc1ccc(/C=C2\SC(=S)N([C@@H](Cc3c[nH]c4ccccc34)C(=O)O)C2=O)cc1)c1ccc(Br)cc1 | > 64
44 | O=C(COc1ccc(/C=C2\SC(=S)N([C@@H](Cc3c[nH]c4ccccc34)C(=O)O)C2=O)cc1)c1ccccc1Cl | > 64
45 | O=C(O)CN1C(=O)C(=Cc2ccc(/C=C/C(=O)c3ccc(Cl)cc3Cl)cc2)SC1=S | > 64
46 | Cc1ccc(C(=O)COc2ccc(/C=C3\SC(=S)N([C@@H](Cc4ccc(O)cc4)C(=O)O)C3=O)cc2)cc1 | > 64
47 | O=C(COc1ccc(/C=C2\SC(=S)N([C@@H](Cc3ccc(O)cc3)C(=O)O)C2=O)cc1)c1cccc(Br)c1 | > 64
48 | O=C(COc1ccc(/C=C2\SC(=S)N([C@@H](Cc3ccccc3)C(=O)O)C2=O)cc1)c1ccc(Cl)cc1Cl | > 64
49 | O=C(COc1ccc(/C=C2\SC(=S)N([C@@H](Cc3ccccc3)C(=O)O)C2=O)cc1)c1ccccc1F | > 64

System: Staphylococcus aureus
Assay: Antibacterial activity against methicillin-resistant Staphylococcus aureus CCARM 3167 after 24 hrs by two-fold serial dilution method
Assay type: functional
Conditions: CCARM 3167, 24 h

Row | Structure (SMILES) | MIC [µg/mL]
50 | O=C(COc1ccc(/C=C2\SC(=S)N([C@@H](Cc3c[nH]c4ccccc34)C(=O)O)C2=O)cc1)c1ccc(Br)cc1 | 8 (≈ 12.9 µM)
51 | O=C(COc1ccc(/C=C2\SC(=S)N([C@@H](Cc3c[nH]c4ccccc34)C(=O)O)C2=O)cc1)c1ccccc1Cl | 8 (≈ 13.9 µM)
52 | O=C(O)CN1C(=O)C(=Cc2ccc(/C=C/C(=O)c3ccc(Cl)cc3Cl)cc2)SC1=S | 2 (≈ 4.18 µM)
53 | Cc1ccc(C(=O)COc2ccc(/C=C3\SC(=S)N([C@@H](Cc4ccc(O)cc4)C(=O)O)C3=O)cc2)cc1 | 16 (≈ 30 µM)
54 | O=C(COc1ccc(/C=C2\SC(=S)N([C@@H](Cc3ccc(O)cc3)C(=O)O)C2=O)cc1)c1cccc(Br)c1 | 8 (≈ 13.4 µM)
55 | O=C(COc1ccc(/C=C2\SC(=S)N([C@@H](Cc3ccccc3)C(=O)O)C2=O)cc1)c1ccc(Cl)cc1Cl | 8 (≈ 14 µM)
56 | O=C(COc1ccc(/C=C2\SC(=S)N([C@@H](Cc3ccccc3)C(=O)O)C2=O)cc1)c1ccccc1F | 4 (≈ 7.67 µM)
